Reference: US20260090983A1, “PARENTERAL NUTRITION FORMULATION” (Baxter International Inc., priority 2018, published 2026)
Entries after “also recorded” stand apart in the source; their conditions may differ. Read-outs that look alike come from different tables or passages of the source.

Key:
[1] = system: male Sprague-Dawley rats with steatosis, induced by choline and methionine deficient (MCD) diet; test: Development of liver weight versus body weight; format: in vivo; conditions: LE 10% without or with choline derivative "high": 31 mmol/L
From the text: The effects of GPC as well as of the combination of DHA, ARA and GPC were investigated in a sick animal model, wherein male Sprague-Dawley rats with steatosis, induced by choline and methionine deficient (MCD) diet (S SNIFF MCD pelleted choline/methionine deficient diet (SSNIFF Spezialdiäten GmbH, Soest, Germany, Product No. E15653-94)) were kept on parenteral nutrition.
Parenteral nutrition started after 14 days under MCD diet. First measurements were done after 5 days of parenteral nutrition, followed by measurements after 9 and 17 days. The daily lipid uptake was 2.31 g/kg/d. The rats were split into several groups as set forth below in Table I.
The study groups as described in Example 1 were further evaluated with regard to the development of liver weight versus body weight. An increase in liver weight which is not proportional to the increase of body weight is typical for the development of liver damage, specifically steatosis, as described before.

[2] = system: male Sprague-Dawley rats with steatosis, induced by choline and methionine deficient (MCD) diet; test: Histopathological grading of hepatocellular vacuolation of the liver; format: in vivo; conditions: for histopathological examination of the liver, vacuolation (FIG. 4A): Step #2
Method: A part of the liver was preserved in buffered formalin, the infusion sites and the sampled macroscopic lesions were trimmed according to the RITA guidelines, where applicable (Ruchl-Fehlert et al., Exp Toxic Pathol 2003; 5 5, 91-106), embedded in paraffin wax, sectioned at a thickness of approximately four microns and stained with hematoxylin-eosin. The frozen liver sample was cryosectioned in slides of approximately five microns and stained by Oil Red O. Tissue processing was performed at Citoxlab, France.
A microscopic examination was performed on both slides (hematoxylin eosin and Oil Red O) of the liver, the infusion sites and the macroscopic lesions from all animals of the study. Peer review was performed on at least 30% of the animals from the high-dose group and on an adequate number of slides from identified target organs to confirm that findings recorded by the Study Pathologist were consistent and accurate.
Liver samples taken after 8 and 15 days, respectively, were examined as described above and assigned to five grades of hepatocellular vacuolation. Vacuolation was generally diffuse and affected all regions for Grade 5. Periportal areas were lesser affected and the vacuoles were smaller in size for lower grades. Grades have been assigned according to the following definition:

[3] = system: male Sprague-Dawley rats with steatosis, induced by choline and methionine deficient (MCD) diet; test: Aminotransferase (ALT) activity in plasma during parenteral nutrition; format: in vivo; conditions: for development of ALT activity from day 5 to day 17 (FIG. 2): Step #2, LE 10% without or with choline derivative "high" 31 mmol/L, plasma after 5 and 17 days of parenteral nutrition
Method: ALT activity is determined by a modification recommended by the International Federation of Clinical Chemistry (IFCC), see also Example 2. ALT catalyzes the reaction of alpha-ketoglutarate with L-alanine to form L-glutamate and pyruvate. Under the action of LDH, pyruvate converts to lactate, and NADH is converted to NAD. The decrease in absorbance of NADH, measured at 340 nm (secondary wavelength is 700 nm), is directly proportional to the serum activity of ALT. It is a kinetic reaction. In general, serum is used for analysis. The serum is separated from the cells within 2 hours of collection and stored at -70° C. until assayed. Monitoring the ALT activity over time in an animal model is used herein as one straightforward and conclusive way to determine the efficacy of GPC in treating liver disease, specifically liver damage caused by a choline-deficient diet (Examples 1 and 2, FIGS. 2 and 3). The effects of GPC as well as of the combination of DHA, ARA and GPC were investigated in a sick animal model, wherein male Sprague-Dawley rats with steatosis, induced by choline and methionine deficient (MCD) diet (S SNIFF MCD pelleted choline/methionine deficient diet (SSNIFF Spezialdiäten GmbH, Soest, Germany, Product No. E15653-94)) were kept on parenteral nutrition. Steatosis was confirmed in the respective groups by histopathology (Example 3). Parenteral nutrition started after 14 days under MCD diet. First measurements were done after 5 days of parenteral nutrition, followed by measurements after 9 and 17 days. The daily lipid uptake was 2.31 g/kg/d. The rats were split into several groups as set forth below in Table I. Two groups served as control groups, wherein a first group was treated with saline solution (0.90% w/v of NaCl in water for injection). A second group received a lipid emulsion (“LE 10%”) containing refined olive oil (80.0 g/L) and refined soybean oil (20.0 g/L) in water for injection, pH 6-8; LE 10% further contained egg lecithin (6.0 g/L), glycerol (11.25 g/L) and sodium oleate (0.15 g/L). LE 10% contained 100 g/L lipids. […] CDP-choline (prepared by fermentation) was from TCI Europe N.V. (Antwerp, Belgium). […] DHA (from algae, Schizochytrium sp.) and ARA (from fungi, Mortierella alpina) were purchased from BASF AG, Germany. Vitamin E was purchased from […].) […] As described before, liver damage (cholestasis) may be determined by increased aminotransferase levels. ALT activity was determined with an AD VIA 1800 blood biochemistry analyzer/IFCC modified (SIEMENS®) according to standard protocols such as described before.

[4] = for Stability upon sterilization (Comment): heat sterilization; for stability of the lipid emulsions during sterilization (heat), in words: lipid emulsions prepared as in Example 1 containing the choline derivative
Method: The choline derivative supplemented “LE” lipid emulsions were prepared as follows. In a first step, raw phases are heated up. In case of the oil phase, soybean and olive oils and egg phosphatide as well as DHA and ARA oils and vitamin E in case of Step #3 experiments are heated in an inox beaker to 75° C. under N2 protection while continuously agitating using an ULTRA TURRAX®. The aqueous phase was prepared by mixing glycerol, sodium oleate and Milli-Q water and constantly heated in an inox beaker to about 75° C. under N2 protection. Where needed, the choline derivative is added under constant agitation. In a second step, the pre-emulsion is prepared by adding the oily phase to the aqueous phase using a peristaltic pump under continuous agitation and then transferred to a high shear inline disperser (e.g. DISPAX REACTOR® DR). The receiving vessel is closed and flushed with nitrogen. In a third step the pre-emulsion is homogenized by passing it several times through a high-pressure homogenizer at 600 bar and a temperature of about 50° C., under a N2 atmosphere.
The emulsion is then adjusted to the required volume (2 L) with Milli-Q water and cooled down to a temperature of approximately 18 to 28° C., preferably 20° C. to 25° C. The pH is adjusted to a range of from 7.8 to 8.8, preferably to about 8.3 to 8.8 with 0.IN NaOH. The emulsion is filtered with a 4.5 μm filter and transferred in 100 mL bags, which are then overpouched, making use of an oxygen absorber/indicator, for later use. The lipid emulsion is then autoclaved at 121° C. to achieve a F0 of at least 15 minutes.

[5] = LE 10% with choline derivative alone (no DHA, ARA), high (31 mmol/L) and low (15 mmol/L) concentration

Row | Compound | liver to body weight ratio in percent (FIG. 5) [1] | histopathological examination of the liver, vacuolation (FIG. 4A) ([2]; LE 10% with choline derivative alone, low concentration, 15 mmol/L) | development of ALT activity from day 5 to day 17 (FIG. 2) [3] | Stability upon sterilization (Comment) ([4]; Concentration 30 mmol/L, lipid emulsion tested LE 10 %) | stability of the lipid emulsions during sterilization (heat), in words [4] | histopathological examination of the liver, vacuolation (FIG. 4A) [2, 5] | Stability upon sterilization (Comment) ([4]; Concentration 15 mmol/L, lipid emulsions tested LE 10, 13, 20 %) | liver status of the animal, in words ([2]; After 15 days into parenteral nutrition, Step #3, LE 13%, versus saline solution) | Vacuolation; hepatocellular, Grade 2, number of animals ([2]; Day 8, Step #3, phytosterol depleted LE 13%, GPC 40 mmol/L where present, 5 animals per group, Grade 2 = slight/few/small vacuoles) | Vacuolation; hepatocellular, Grade 3, number of animals ([2]; Day 8, Step #3, phytosterol depleted LE 13%, GPC 40 mmol/L where present, 5 animals per group, Grade 3 = moderate vacuoles) | Vacuolation; hepatocellular, Grade 4, number of animals ([2]; Day 8, Step #3, phytosterol depleted LE 13%, GPC 40 mmol/L where present, 5 animals per group, Grade 4 = marked/many/large vacuoles) | Vacuolation; hepatocellular, Grade 5, number of animals ([2]; Day 8, Step #3, phytosterol depleted LE 13%, GPC 40 mmol/L where present, 5 animals per group, Grade 5 = severe, diffuse, all liver regions) | Stability upon sterilization (Comment) ([4]; Concentration 30 mmol/L, lipid emulsions tested LE 10, 20 %) | ALT activity, change in percent of the normal value for plasma (FIG. 3) ([3]; Step #3, LE 10% normal phytosterol without GPC, LE 10% + GPC 40 mmol/L, LE 13% reduced phytosterol + GPC 40 mmol/L)
1 | C[N+](C)(C)CCOP(=O)(O)OP(=O)([O-])OC[C@H]1O[C@@H](n2ccc(N)nc2=O)[C@H](O)[C@@H]1O [CDP-choline, cytidine diphosphate-choline, reference compound] | reduction of the ratio | also had an effect | neither significantly increases or decreases | Phase separation | phase separation of the lipid emulsions during sterilization | – | – | – | – | – | – | – | – | –
2 | C[N+](C)(C)CCO.[Cl-] [Choline Chloride, (2-Hydroxyethyl)trimethylammonium chloride, reference compound] | reduction of the ratio | – | neither significantly increases or decreases | – | phase separation of the lipid emulsions during sterilization | fared better than those with only saline or lipid emulsion without any choline derivative | Phase separation | – | – | – | – | – | – | –
3 | C[N+](C)(C)CCOP(=O)([O-])OC[C@H](O)CO [GPC, glycerophosphocholine] | most pronounced reduction of the ratio | – | clear drop in ALT activity; also recorded: most pronounced | – | remained stable | most significant impact; also recorded: significantly better | – | clear and significant improvement of the liver status | one | one | Three | none | Stable emulsion | –
4 | phosphatidylcholine | does not seem to have any effect | – | does not seem to have any effect | – | – | – | – | – | – | – | – | – | – | does not seem to have any effect
